Experiments:
[1] = biological target: wt KIT kinase (Homo sapiens (Human), UniProt P10721); assay: Wild-type KIT binding assay (Kd determination, phage-tagged kinase, qPCR)
Description: Kd Determinations. For most assays, including wt KIT kinase, kinase-tagged T7 phage strains were prepared in an E. coli host derived from the BL21 strain. E. coli were grown to log-phase and infected with T7 phage and incubated with shaking at 32° C. until lysis. […] The liganded beads were blocked with excess biotin and washed with blocking buffer (SeaBlock (Pierce), 1% BSA, 0.05% Tween 20, 1 mM DTT) to remove unbound ligand and to reduce non-specific binding. […] Test compounds were prepared as 111× stocks in 100% DMSO. Kds were determined using an 11-point 3-fold compound dilution series with three DMSO control points. […] The compounds were then diluted directly into the assays such that the final concentration of DMSO was 0.9%. All reactions were performed in polypropylene 384-well plate. Each was a final volume of 0.02 ml. […] The kinase concentration in the eluates was measured by qPCR.
Binding Constants (Kds). Binding constants (Kds) were calculated with a standard dose-response curve using the Hill equation: Response=Background+Signal−Background 1+(KdHill Slope/DoseHill Slope). The Hill Slope was set to −1. Curves were fitted using a non-linear least square fit with the Levenberg-Marquardt algorithm.

[2] = biological target: KIT D816V (Homo sapiens (Human), UniProt P10721, D816V/V560G); assay: HMC1.2 autophosphorylation assay (phospho-Y719 KIT AlphaLISA); type: cell-based; settings: HMC1.2 cell line, KIT autophosphorylation at tyrosine 719, 90 minutes; read-out: KIT (P-KIT HMC1.2 (nM))
Description: 10,000 HMC1.2 cells were incubated in 22 μL culture media (phenol-red free IMDM, no serum) in each well of a 384-well plate and serum starved overnight in a tissue culture incubator (5% CO2, 37° C.). […] 10 μL of 100 μg/mL streptavidin donor beads (Perkin Elmer) were added to each well, blocked from light with solid black adhesive and shaken at 300 rpm at room temperature for 2 hours. Fluorescence signal was obtained on Envision (Perkin Elmer) by AlphaScreen 384 well HTS protocol.

[3] = biological target: KIT D816V (Homo sapiens (Human), UniProt P10721, D816V); assay: KIT D816V biochemical enzymatic activity assay (EZReader 2 mobility shift); settings: at APPKM for ATP, 20 μM ATP, 60 minutes
From the text: (§1) PDGFRα and KIT enzymatic activity was monitored using the Perkin Elmer electrophoretic mobility shift technology platform, the EZReader 2.
(§2) Within the linear, steady-state phase of the kinase enzymatic reaction, the mixed pool of phosphorylated (product) and non-phosphorylated (substrate) peptides was passed through the microfluidic system of the PerkinElmer EZ Reader 2, under an applied electric potential difference. The presence of the phosphate group on the product peptide provided a difference in mass and charge between that of the substrate peptide, resulting in a separation of the substrate and product pools in the sample (Perrin et al., Expert Opin Drug Discovery 2010 Jan. 5(1):51-63).
(§3) As the product and substrate peptide mixture passes the lasers within the instrument, these pools are detected (λex=488 nm, λem=568 nm) and resolved as separate peaks. The ratio between these peaks reflects the activity of the compound at that concentration, in that well, under those conditions.
(§4) All test articles were dissolved in 100% DMSO at a stock concentration of 10 mM. A 100×, 10-point, 4-fold serial dilution of all test compounds was created in 100% DMSO, starting at a relevant concentration, usually 1 mM. A volume of 0.130 μL of each concentration was transferred to the relevant well of a 384-well assay plate (Greiner 781 201) using a TTPLabtech Mosquito nano-liter dispenser. Using the Multidrop, the remaining constituents of the reaction were then added to the 0.130 μL of compound as follows:
The plate was read on a Caliper EZReader 2.

[4] = biological target: PDGFRα D842V (Homo sapiens (Human), UniProt P16234, D842V); assay: PDGFRα D842V biochemical enzymatic activity assay (EZReader 2 mobility shift); settings: at APPKM for ATP, 25 μM ATP, 90 minutes
From the text: as §1, §2, §3
Inhibition of KIT (D816V) PDGFRα (D842V) Mutant Biochemical Enzymatic Activity
as §4
The reaction was stopped by the addition of 70 μl of Stop buffer (100 mM HEPES pH 7.5, 0.015% Brij 35, 35 mM EDTA and 0.2% of Coating Reagent 3, Caliper Lifesciences). The plate was read on a Caliper EZReader 2.

[5] = test system: UT-7 cells; assay: UT-7 cell proliferation with SCF stimulation as a measure of wild-type KIT activity (CellTiter-Glo); type: cell-based, human; settings: SCF-stimulated UT-7 cell proliferation
From the text: UT-7 Cell Proliferation with SCF Stimulation Assay as a Measure of Wild-Type KIT Activity
UT-7 cells are human megakaryoblastic leukemia cell lines that can be grown in culture with dependence on granulocyte macrophage colony stimulating factor (GM-CSF) or stem cell factor (SCF). UT-7 cells respond to SCF stimulation by activation of the KIT receptor tyrosine kinase and subsequent downstream signaling that can support cell growth and proliferation (Kuriu et al, 1999; Komatsu et al, 1991; Sasaki et al, 1995). Test compounds were assayed for their ability to inhibit SCF-stimulated proliferation of UT-7 cells.
Inhibition of SCF-stimulated UT-7 cell proliferation was assessed using the CellTiter-Glo assay that quantifies the amount of adenosine triphosphate (ATP) present, which is a readout of metabolically active cells and is directly proportional to the number of viable cells in culture. The ability of test compounds to inhibit SCF-stimulated UT-7 cell proliferation was determined using a 10-point dose curve ranging from 25 μM to 95.4 pM of test compound.
UT-7 cells were maintained in IMDM supplemented with 10% FBS, 5 ng/mL GM-CSF and 100 units/mL Penicillin-Streptomycin and grown in a 37° C. humidified tissue culture incubator. UT-7 cells were washed once with serum free, GM-CSF free IMDM. Cells were then resuspended in IMDM containing 4% FBS and 50 ng/mL SCF and seeded at 2500 cells per well in a volume of 22 μL in a 384-well microplate. A 10-point dose concentration series of test compounds (25.0 μM to 95.4 pM) were then added to the cells in a volume of 3.1 μL to each well (0.25% DMSO final concentration) and placed in a tissue culture incubator (5% CO2, 37° C.) for 72 hours. After 3-days with test compound, CellTiter-Glo reagent was prepared fresh and 25 μL of reagent was added to each well. The plate was mixed by shaking for 10 minutes at RT at 300 rpm on a plate shaker. The plate was read on an EnVision plate reader using the Ultra Sensitive Luminescence protocol for a 384-well plate.

PDGFRα D842V, sequence (P16234 24-1089 D842V): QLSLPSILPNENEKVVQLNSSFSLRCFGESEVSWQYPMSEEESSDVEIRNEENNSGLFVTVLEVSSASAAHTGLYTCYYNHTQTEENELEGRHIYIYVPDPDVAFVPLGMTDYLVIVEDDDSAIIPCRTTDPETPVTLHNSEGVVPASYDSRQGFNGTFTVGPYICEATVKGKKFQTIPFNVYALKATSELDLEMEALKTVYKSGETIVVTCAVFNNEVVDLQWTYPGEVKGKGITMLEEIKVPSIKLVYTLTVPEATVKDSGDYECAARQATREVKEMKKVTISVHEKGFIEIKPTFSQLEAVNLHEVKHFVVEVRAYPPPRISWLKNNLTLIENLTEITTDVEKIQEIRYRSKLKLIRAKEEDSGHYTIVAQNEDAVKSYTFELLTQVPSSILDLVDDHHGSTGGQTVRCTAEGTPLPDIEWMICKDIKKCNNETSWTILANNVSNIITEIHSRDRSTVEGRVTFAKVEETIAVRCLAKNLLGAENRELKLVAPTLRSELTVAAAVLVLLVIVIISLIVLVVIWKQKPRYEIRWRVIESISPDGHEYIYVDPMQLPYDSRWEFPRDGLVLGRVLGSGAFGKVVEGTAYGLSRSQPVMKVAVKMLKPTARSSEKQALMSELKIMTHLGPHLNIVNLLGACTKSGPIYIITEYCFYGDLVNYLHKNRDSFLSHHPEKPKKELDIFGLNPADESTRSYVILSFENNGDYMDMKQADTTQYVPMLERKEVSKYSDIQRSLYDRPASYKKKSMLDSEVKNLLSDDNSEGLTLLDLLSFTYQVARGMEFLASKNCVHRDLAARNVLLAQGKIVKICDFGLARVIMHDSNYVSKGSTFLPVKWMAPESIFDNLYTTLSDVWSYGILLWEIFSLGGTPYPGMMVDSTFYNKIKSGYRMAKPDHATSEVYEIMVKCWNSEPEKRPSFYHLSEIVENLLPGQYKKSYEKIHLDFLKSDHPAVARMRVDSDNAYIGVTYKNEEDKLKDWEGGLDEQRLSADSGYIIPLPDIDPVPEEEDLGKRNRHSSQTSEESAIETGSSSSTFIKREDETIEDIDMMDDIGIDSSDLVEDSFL
KIT D816V (Homo sapiens (Human), UniProt P10721, D816V/V560G), sequence (P10721 26-976 V560G/D816V): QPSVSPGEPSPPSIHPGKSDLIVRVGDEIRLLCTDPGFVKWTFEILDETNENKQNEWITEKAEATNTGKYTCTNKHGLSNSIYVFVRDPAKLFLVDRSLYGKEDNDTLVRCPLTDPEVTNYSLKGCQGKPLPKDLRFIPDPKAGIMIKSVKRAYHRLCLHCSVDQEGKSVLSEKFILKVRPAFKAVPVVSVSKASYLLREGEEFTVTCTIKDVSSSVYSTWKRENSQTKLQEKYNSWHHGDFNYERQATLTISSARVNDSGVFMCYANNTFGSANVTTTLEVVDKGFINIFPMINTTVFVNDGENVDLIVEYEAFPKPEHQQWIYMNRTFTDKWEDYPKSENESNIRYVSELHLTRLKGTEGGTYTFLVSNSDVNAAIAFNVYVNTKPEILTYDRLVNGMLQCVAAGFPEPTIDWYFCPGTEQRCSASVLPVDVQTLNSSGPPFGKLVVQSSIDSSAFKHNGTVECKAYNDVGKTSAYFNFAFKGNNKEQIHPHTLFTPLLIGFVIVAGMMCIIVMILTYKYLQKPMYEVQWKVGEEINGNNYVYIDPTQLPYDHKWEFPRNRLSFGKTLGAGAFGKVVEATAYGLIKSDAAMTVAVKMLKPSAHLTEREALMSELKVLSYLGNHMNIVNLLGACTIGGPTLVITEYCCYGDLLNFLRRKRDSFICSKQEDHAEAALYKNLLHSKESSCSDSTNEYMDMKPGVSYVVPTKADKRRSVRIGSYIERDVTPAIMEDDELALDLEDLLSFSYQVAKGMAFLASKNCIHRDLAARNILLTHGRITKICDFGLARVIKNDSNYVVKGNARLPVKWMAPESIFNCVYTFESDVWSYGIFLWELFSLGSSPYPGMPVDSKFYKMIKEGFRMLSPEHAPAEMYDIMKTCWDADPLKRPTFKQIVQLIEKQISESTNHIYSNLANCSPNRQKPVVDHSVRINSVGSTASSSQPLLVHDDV
wt KIT kinase, sequence (P10721 26-976): as the sequence (P10721 26-976 V560G/D816V) above, with G535V, V791D counted along it
KIT D816V (Homo sapiens (Human), UniProt P10721, D816V), sequence (P10721 26-976 D816V): as the sequence (P10721 26-976 V560G/D816V) above, with G535V counted along it

Row | Compound | Kd [1] [µM] | IC50 [2] [nM] | IC50 [3] [µM] | IC50 [4] [µM] | IC50 ([5]; Homo sapiens, UT7, 72 h) [nM] | IC50 ([5]; 72 hours) [nM]
1 | C[C@](N)(c1ccc(F)cc1)c1cnc(N2CCN(c3ncnn4cc(-c5cnn([C@@H]6COC[C@@H]6O)c5)cc34)CC2)nc1 (single isomer, unassigned) [Compound 17] | < 0.01 | 4.6 to 10 | 0.00031 to 0.001 | ≤ 0.0003 | 90.1 to 150 | 
2 | C[C@](N)(c1ccc(F)cc1)c1cnc(N2CCN(c3ncnn4cc(-c5cnn([C@H]6COC[C@@H]6O)c5)cc34)CC2)nc1 (single isomer, unassigned) [Compound 18] | < 0.01 | < 4.5 | ≤ 0.0003 | ≤ 0.0003 | 90.1 to 150 | 
3 | C[C@](N)(c1ccc(F)cc1)c1cnc(N2CCN(c3ncnn4cc(-c5cnn([C@H]6COC[C@H]6O)c5)cc34)CC2)nc1 (single isomer, unassigned) [Compound 20] | < 0.01 | < 4.5 | ≤ 0.0003 | ≤ 0.0003 | 90.1 to 150 | 
4 | C[C@](N)(c1ccc(F)cc1)c1cnc(N2CCN(c3ncnn4cc(-c5cnn([C@@H]6CC[C@H]6O)c5)cc34)CC2)nc1 (single isomer, unassigned) [Compound 22] | < 0.01 | < 4.5 | ≤ 0.0003 | ≤ 0.0003 | 90.1 to 150 | 
5 | CC(C)(O)Cn1cc(-c2cc3c(N4CCN(c5ncc([C@@](C)(N)c6ccc(F)cc6)cn5)CC4)ncnn3c2)cn1 [Compound 1, (S)-1-(4-(4-(4-(5-(1-Amino-1-(4-fluorophenyl)ethyl)pyrimidin-2-yl)piperazin-1-yl)pyrrolo[2,1-f][1,2,4]triazin-6-yl)-1H-pyrazol-1-yl)-2-methylpropan-2-ol] |  |  |  |  | 150 to 200 | 
6 | CC(C)(CO)n1cc(-c2cc3c(N4CCN(c5ncc([C@@](C)(N)c6ccc(F)cc6)cn5)CC4)ncnn3c2)cn1 [Compound 2, (S)-2-(4-(4-(4-(5-(1-amino-1-(4-fluorophenyl)ethyl)pyrimidin-2-yl)piperazin-1-yl)pyrrolo[2,1-f][1,2,4]triazin-6-yl)-1H-pyrazol-1-yl)-2-methylpropan-1-ol] |  |  |  |  | 150 to 200 | 
7 | C[C@@H](O)Cn1cc(-c2cc3c(N4CCN(c5ncc([C@@](C)(N)c6ccc(F)cc6)cn5)CC4)ncnn3c2)cn1 [Compound 3, (R)1-{4-[4-(4-{5-[(S)-1-Amino-1-(4-fluoro-phenyl)-ethyl]-pyrimidin-2-yl}-piperazin-1-yl)-pyrrolo[2,1-f][1,2,4]triazin-6-yl]-pyrazol-1-yl}-propan-2-ol] |  |  |  |  | < 90 | 
8 | C[C@H](CO)n1cc(-c2cc3c(N4CCN(c5ncc([C@@](C)(N)c6ccc(F)cc6)cn5)CC4)ncnn3c2)cn1 [Compound 5, (R)-2-(4-(4-(4-(5-((S)-1-Amino-1-(4-fluorophenyl)ethyl)pyrimidin-2-yl)piperazin-1-yl)pyrrolo[2,1-f][1,2,4]triazin-6-yl)-1H-pyrazol-1-yl)propan-1-ol] |  |  |  |  | < 90 | 
9 | C[C@@H](CO)n1cc(-c2cc3c(N4CCN(c5ncc([C@@](C)(N)c6ccc(F)cc6)cn5)CC4)ncnn3c2)cn1 [Compound 6, (S)-2-(4-(4-(4-(5-((S)-1-amino-1-(4-fluorophenyl)ethyl)pyrimidin-2-yl)piperazin-1-yl)pyrrolo[2,1-f][1,2,4]triazin-6-yl)-1H-pyrazol-1-yl)propan-1-ol] |  |  |  |  | < 90 | 
10 | C[C@](N)(c1ccc(F)cc1)c1cnc(N2CCN(c3ncnn4cc(-c5cnn(C6COC6)c5)cc34)CC2)nc1 [Compound 7, (S)-1-(4-Fluorophenyl)-1-(2-(4-(6-(1-(oxetan-3-yl)-1H-pyrazol-4-yl)pyrrolo[2,1-f][1,2,4]triazin-4-yl)piperazin-1-yl)pyrimidin-5-yl)ethan-1-amine] |  |  |  | ≤ 0.0003 | 90.1 to 150 | 
11 | C[C@H](O)Cn1cc(-c2cc3c(N4CCN(c5ncc([C@@](C)(N)c6ccc(F)cc6)cn5)CC4)ncnn3c2)cn1 [Compound 9] |  |  |  | ≤ 0.0003 | 90.1 to 150 | 
12 | C[C@](N)(c1ccc(F)cc1)c1cnc(N2CCN(c3ncnn4cc(-c5cnn([C@H]6C[C@H](O)C6)c5)cc34)CC2)nc1 [Compound 11, trans-3-{4-[4-(4-{5-[1-Amino-1-(4-fluoro-phenyl)-ethyl]-pyrimidin-2-yl}-piperazin-1-yl)-pyrrolo[2,1-f][1,2,4]triazin-6-yl]-pyrazol-1-yl}-cyclobutanol] | < 0.01 | 4.6 to 10 | ≤ 0.0003 | ≤ 0.0003 |  | 90.1 to 150
13 | C[C@](N)(c1ccc(F)cc1)c1cnc(N2CCN(c3ncnn4cc(-c5cnn(CC6(O)CC6)c5)cc34)CC2)nc1 [Compound 12, (S)-1-((4-(4-(4-(5-(1-Amino-1-(4-fluorophenyl)ethyl)pyrimidin-2-yl)piperazin-1-yl)pyrrolo[2,1-f][1,2,4]triazin-6-yl)-1H-pyrazol-1-yl)methyl)cyclopropan-1-ol] |  |  |  | ≤ 0.0003 | 90.1 to 150 | 
14 | C[C@](N)(c1ccc(F)cc1)c1cnc(N2CCN(c3ncnn4cc(-c5cnn(C6(CO)CC6)c5)cc34)CC2)nc1 [Compound 13, (S)-(1-(4-(4-(4-(5-(1-Amino-1-(4-fluorophenyl)ethyl)pyrimidin-2-yl)piperazin-1-yl)pyrrolo[2,1-f][1,2,4]triazin-6-yl)-1H-pyrazol-1-yl)cyclopropyl)methanol] |  |  |  | ≤ 0.0003 | 90.1 to 150 | 
